Results from patent US20230017045A1, “PYRIDINE AND PYRIMIDINE CARBOXYLATE HERBICIDES AND METHODS OF USE THEREOF” (Dow AgroSciences LLC, priority 2017, published 2023).
Like-named read-outs stand apart in the source and are kept apart here.

Tested on: test plant species
Assay: Post-emergent herbicidal activity test (greenhouse, foliar spray, visual growth reduction)
Type: in vivo
Conditions: post-emergence, 336 h, 140 g ai/ha
In short: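 Greenhouse plants at first–second true leaf stage sprayed overhead at 187 L/ha with compound in acetone/water/isopropanol/DMSO/crop oil/X-77 carrier; controls received solvent blank. Injury rated visually after 14 d on a 0–100% scale versus untreated and control plants, converted to growth reduction.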

[1] = ECHCG: barnyardgrass (Echinochloa crus-galli), 14 days after application, read-out: Visual Growth Reduction (%) 14 Days After Application, ECHCG
[2] = IPOHE: ivy-leaf morning glory (Ipomoea hederacea), 14 days after application, read-out: Visual Growth Reduction (%) 14 Days After Application, IPOHE
[3] = KCHSC: kochia (Bassia scoparia), 14 days after application, read-out: Visual Growth Reduction (%) 14 Days After Application, KCHSC
[4] = ORYSA: rice (Oryza sativa), 14 days after application, read-out: Visual Growth Reduction (%) 14 Days After Application, ORYSA
[5] = SETFA: giant foxtail (Setaria faberi), 14 days after application, read-out: Visual Growth Reduction (%) 14 Days After Application, SETFA
[6] = SORVU: grain sorghum (Sorghum vulgare), 14 days after application, read-out: Visual Growth Reduction (%) 14 Days After Application, SORVU
[7] = STEME: common chickweed (Stellaria media), 14 days after application, read-out: Visual Growth Reduction (%) 14 Days After Application, STEME
[8] = TRZAS: wheat, spring (Triticum aestivum), 14 days after application, read-out: Visual Growth Reduction (%) 14 Days After Application, TRZAS
[9] = blackgrass (Alopecurus myosuroides), 14 Days After Application, read-out: Visual Growth Reduction (%) ALOMY
[10] = canada thistle (Cirsium arvense), 14 Days After Application, read-out: Visual Growth Reduction (%) CIRAR
[11] = crabgrass (Digitaria sanguinalis), 14 Days After Application, read-out: Visual Growth Reduction (%) DIGSA
[12] = lambsquarters (Chenopodium album), 14 Days After Application, read-out: Visual Growth Reduction (%) CHEAL
[13] = redroot pigweed (Amaranthus retroflexus), 14 Days After Application, read-out: Visual Growth Reduction (%) AMARE
[14] = wild oat (Avena fatua), 14 Days After Application, read-out: Visual Growth Reduction (%) AVEFA
[15] = yellow nutsedge (Cyperus esculentus), 14 Days After Application, read-out: Visual Growth Reduction (%) CYPES
[16] = ALOMY: blackgrass (Alopecurus myosuroides), 14 days after application, read-out: Visual Growth Reduction (%) 14 Days After Application, ALOMY
[17] = AMARE: redroot pigweed (Amaranthus retroflexus), 14 days after application, read-out: Visual Growth Reduction (%) 14 Days After Application, AMARE
[18] = AVEFA: wild oat (Avena fatua), 14 days after application, read-out: Visual Growth Reduction (%) 14 Days After Application, AVEFA
[19] = CHEAL: lambsquarters (Chenopodium album), 14 days after application, read-out: Visual Growth Reduction (%) 14 Days After Application, CHEAL
[20] = CIRAR: canada thistle (Cirsium arvense), 14 days after application, read-out: Visual Growth Reduction (%) 14 Days After Application, CIRAR
[21] = CYPES: yellow nutsedge (Cyperus esculentus), 14 days after application, read-out: Visual Growth Reduction (%) 14 Days After Application, CYPES
[22] = DIGSA: crabgrass (Digitaria sanguinalis), 14 days after application, read-out: Visual Growth Reduction (%) 14 Days After Application, DIGSA

Structure (SMILES)	pest or weed control at 140 g/ha [1] [%]	pest or weed control at 140 g/ha [2] [%]	pest or weed control at 140 g/ha [3] [%]	pest or weed control at 140 g/ha [4] [%]	pest or weed control at 140 g/ha [5] [%]	pest or weed control at 140 g/ha [6] [%]	pest or weed control at 140 g/ha [7] [%]	pest or weed control at 140 g/ha [8] [%]	pest or weed control at 140 g/ha [9] [%]	pest or weed control at 140 g/ha [10] [%]	pest or weed control at 140 g/ha [11] [%]	pest or weed control at 140 g/ha [12] [%]	pest or weed control at 140 g/ha [13] [%]	pest or weed control at 140 g/ha [14] [%]	pest or weed control at 140 g/ha [15] [%]	pest or weed control at 140 g/ha [16] [%]	pest or weed control at 140 g/ha [17] [%]	pest or weed control at 140 g/ha [18] [%]	pest or weed control at 140 g/ha [19] [%]	pest or weed control at 140 g/ha [20] [%]	other results
COC(=O)c1nc(-c2cc(F)c(C(F)(F)F)cc2Cl)c(F)cc1Cl [F241, Methyl 3-chloro-6-(2-chloro-5-fluoro-4-(trifluoromethyl)phenyl)-5-fluoropicolinate]	60 to 74	95 to 100	95 to 100	0 to 29	95 to 100	95 to 100	0 to 29	75 to 84	60 to 74	95 to 100	95 to 100	95 to 100	95 to 100	85 to 94	60 to 74	–	–	–	–	–	–
COC(=O)c1nc(-c2cc(C#N)c(C(F)(F)F)cc2Cl)ccc1Cl [F326, Methyl 3-chloro-6-(2-chloro-5-cyano-4-(trifluoromethyl)phenyl)picolinate]	75 to 84	0 to 29	0 to 29	0 to 29	30 to 44	95 to 100	0 to 29	0 to 29	0 to 29	45 to 59	75 to 84	60 to 74	0 to 29	0 to 29	0 to 29	–	–	–	–	–	–
COC(=O)c1nc(-c2cccc(Cl)c2F)ccc1Cl [F277, Methyl 3-chloro-6-(3-chloro-2-fluorophenyl) picolinate]	0 to 29	0 to 29	0 to 29	0 to 29	0 to 29	0 to 29	0 to 29	0 to 29	0 to 29	0 to 29	0 to 29	0 to 29	0 to 29	0 to 29	0 to 29	–	–	–	–	–	–
COC(=O)c1nc(-c2cc(Br)c(C(F)(F)F)cc2Cl)c(F)cc1Cl [F152, Methyl 6-(5-bromo-2-chloro-4-(trifluoromethyl)phenyl)-3-chloro-5-fluoropicolinate]	0 to 29	95 to 100	85 to 94	0 to 29	0 to 29	95 to 100	0 to 29	0 to 29	–	–	–	–	–	–	–	0 to 29	95 to 100	0 to 29	95 to 100	45 to 59	pest or weed control at 140 g/ha [21]: 0 to 29%; pest or weed control at 140 g/ha [22]: 60 to 74%
COC(=O)c1nc(-c2ccc(C(F)(F)C(N)=O)cc2Cl)ccc1Cl [F176, Methyl 6-(4-(2-amino-1,1-difluoro-2-oxoethyl)-2-chlorophenyl)-3-chloropicolinate]	0 to 29	0 to 29	0 to 29	0 to 29	0 to 29	0 to 29	0 to 29	0 to 29	–	–	–	–	–	–	–	0 to 29	0 to 29	0 to 29	0 to 29	0 to 29	pest or weed control at 140 g/ha [21]: 0 to 29%; pest or weed control at 140 g/ha [22]: 0 to 29%
COC(=O)c1nc(-c2ccc(SC)cc2)c(F)cc1Cl [F248, Methyl 3-chloro-5-fluoro-6-(4-(methylthio)phenyl) picolinate]	0 to 29	30 to 44	0 to 29	0 to 29	0 to 29	0 to 29	0 to 29	0 to 29	0 to 29	0 to 29	60 to 74	0 to 29	0 to 29	0 to 29	0 to 29	–	–	–	–	–	–
COC(=O)c1nc(-c2ccc(OC)cc2)c(F)cc1Cl [F365, Methyl 3-chloro-5-fluoro-6-(4-methoxyphenyl) picolinate]	0 to 29	0 to 29	0 to 29	0 to 29	0 to 29	0 to 29	0 to 29	0 to 29	0 to 29	0 to 29	0 to 29	0 to 29	0 to 29	0 to 29	0 to 29	–	–	–	–	–	–
COC(=O)c1nc(-c2cc(OC)c(Cl)cc2Cl)ccc1Cl [F47, Methyl 3-chloro-6-(2,4-dichloro-5-methoxyphenyl) picolinate]	0 to 29	–	0 to 29	0 to 29	0 to 29	0 to 29	0 to 29	0 to 29	–	–	–	–	–	–	–	0 to 29	0 to 29	0 to 29	0 to 29	0 to 29	pest or weed control at 140 g/ha [21]: 0 to 29%; pest or weed control at 140 g/ha [22]: 0 to 29%
O=C(O)c1nc(-c2ccc(C(F)(F)F)nc2Cl)ccc1Cl [F192, 2′,5-Dichloro-6′-(trifluoromethyl)-[2,3′-bipyridine]-6-carboxylic acid]	75 to 84	95 to 100	60 to 74	0 to 29	75 to 84	85 to 94	0 to 29	0 to 29	–	–	–	–	–	–	–	0 to 29	85 to 94	0 to 29	95 to 100	75 to 84	pest or weed control at 140 g/ha [21]: 0 to 29%; pest or weed control at 140 g/ha [22]: 85 to 94%
COC(=O)c1nc(-c2ccc(C(F)(F)F)c(F)c2)c(F)cc1Cl [F307, Methyl 3-chloro-5-fluoro-6-(3-fluoro-4-(trifluoromethyl)phenyl) picolinate]	0 to 29	95 to 100	0 to 29	0 to 29	0 to 29	85 to 94	0 to 29	0 to 29	0 to 29	0 to 29	85 to 94	75 to 84	75 to 84	0 to 29	0 to 29	–	–	–	–	–	–
